What was measured:
[1] = tested on: T1, S. baltica TtrSR (Sbal195_3859/8); assay: sfGFP reporter, flow cytometry, Hill fit; assay type: cell-based, Shewanella baltica; conditions: E. coli BW28357, aerobic, M9 + glycerol, 37°C, 10 μM IPTG; PttrB185-269 reporter; activation; read-out: k 1/2
T1 construct: gene ttrS; E. coli codon-optimised TtrS (pKD227, IPTG-inducible) and TtrR (pKD226, aTc-inducible) in E. coli BW28357; PttrB185-269-sfGFP reporter; with Tetrathionate response regulator TtrR

[2] = target: T2, ThsSR (ThsS/R; Shal_3128/9) (Shewanella halifaxensis, UniProt B0TQ83); assay: sfGFP reporter, flow cytometry, repression transfer function; assay type: cell-based; conditions: read-out: half-maximal inhibition
T2 construct: E. coli codon-optimised ThsS (pKD182, IPTG-inducible) and ThsR (pKD184, aTc-inducible) in E. coli BW28357; PphsA342-sfGFP reporter; membrane histidine kinase with PhnD-like periplasmic sensor domain; with Thiosulfate response regulator ThsR
T2 sequence (B0TQ83 1-594): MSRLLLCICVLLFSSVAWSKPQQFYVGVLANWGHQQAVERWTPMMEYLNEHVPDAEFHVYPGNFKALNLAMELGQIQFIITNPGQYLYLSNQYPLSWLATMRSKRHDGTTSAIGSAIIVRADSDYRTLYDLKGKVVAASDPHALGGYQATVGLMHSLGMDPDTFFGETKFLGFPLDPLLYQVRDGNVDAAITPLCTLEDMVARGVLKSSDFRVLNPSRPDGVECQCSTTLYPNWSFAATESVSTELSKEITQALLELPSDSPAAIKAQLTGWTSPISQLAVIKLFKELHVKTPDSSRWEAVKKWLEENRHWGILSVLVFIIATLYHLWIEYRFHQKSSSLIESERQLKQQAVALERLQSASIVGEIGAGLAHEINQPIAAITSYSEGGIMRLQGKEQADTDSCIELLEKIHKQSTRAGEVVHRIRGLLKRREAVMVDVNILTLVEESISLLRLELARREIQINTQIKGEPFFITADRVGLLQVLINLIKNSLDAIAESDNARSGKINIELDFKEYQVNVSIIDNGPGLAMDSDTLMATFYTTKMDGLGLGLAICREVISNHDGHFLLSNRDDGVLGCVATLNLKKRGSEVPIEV

[3] = target: T2, ThsSR (ThsS/R; Shal_3128/9); assay: sfGFP reporter, flow cytometry, Hill fit; assay type: cell-based; conditions: read-out: k 1/2

EC50 [1] [µM] | IC50 [2] [µM] | EC50 [3] [µM] | SMILES
50 ± 3 | 550 ± 20 | – | O=S(=O)(O)SSS(=O)(=O)O [tetrathionate]
– | 390 ± 10 | – | O=S(O)O [sulfite]
– | – | 280 ± 10 | O=S(O)(O)=S [thiosulfate]
